Bridge positions count the residues as written; N and C are the ends. Peptide text beside a SMILES is read from it.
These compounds were tested on S. aureus DPC5246. Conditions: DPC5246, pH 6.8.
Type: cell-based, Staphylococcus aureus
Description: Peptides were resuspended at 1000 µM in 50 mM sodium phosphate buffer pH 6.8 and checked for purity by MALDI-TOF-MS. Peptides were serially diluted 1 in 4 to give a dilution series of 250, 62.50, 15.63, 3.91, 0.98 and 0.24 µM and assayed by the agar well diffusion assay described by Ryan et al.[19]. Briefly, 50 µl aliquots of each peptide concentration were plated on a S. aureus DPC5246 indicator plate and the plate incubated at 37 °C. Peptide activity (Minimum Inhibitory Concentration (MIC)) was taken as the lowest concentration of peptide to give a zone of inhibition. All assays were performed in triplicate. The dilution series values were rounded to the nearest whole number to give 1000, 250, 63, 16, 4, 1 and 0.25 µM and data is colour coded for ease of interpretation.

Structure (SMILES) | Activity (Minimum Inhibitory Concentration, MIC) [µM]
CSCC[C@@H]1NC(=O)CNC(=O)[C@H]([C@@H](C)O)NC(=O)[C@@H]2CCCN2C(=O)[C@H](CCSC)NC(=O)[C@H](C)NC(=O)[C@H](CC(N)=O)NC(=O)[C@H](CC(N)=O)NC(=O)[C@H](Cc2ccc(O)cc2)NC(=O)[C@H](C(C)C)NC(=O)[C@H](CCCNC(=N)N)NC(=O)[C@@H](NC(=O)[C@H](CCCNC(=N)N)NC(=O)[C@H](Cc2c[nH]cn2)NC(=O)[C@H](CCCCN)NC(=O)[C@H](CCCCN)NC(=O)[C@H](CCCNC(=N)N)NC(=O)[C@@H](N)CCCCN)CSSC[C@@H](C(=O)O)NC(=O)[C@H](Cc2c[nH]c3ccccc23)NC(=O)[C@H](CCCNC(=N)N)NC(=O)[C@H](Cc2ccc(O)cc2)NC1=O [G13A] (H-KRKKHRCRVYNNAMPTGMYRWC-OH; disulfide 7-22) | 16
CSCC[C@@H]1NC(=O)CNC(=O)[C@H]([C@@H](C)O)NC(=O)[C@@H]2CCCN2C(=O)[C@H](CCSC)NC(=O)CNC(=O)[C@H](CC(N)=O)NC(=O)[C@H](CC(N)=O)NC(=O)[C@H](Cc2ccc(O)cc2)NC(=O)[C@H](C(C)C)NC(=O)[C@H](CCCNC(=N)N)NC(=O)[C@@H](NC(=O)[C@H](CCCNC(=N)N)NC(=O)[C@H](Cc2c[nH]cn2)NC(=O)[C@H](CCCCN)NC(=O)[C@H](CCCCN)NC(=O)[C@@H](N)CCCNC(=N)N)CSSC[C@@H](C(=O)O)NC(=O)[C@H](Cc2c[nH]c3ccccc23)NC(=O)[C@H](CCCNC(=N)N)NC(=O)[C@H](Cc2ccc(O)cc2)NC1=O [R2-C22] (H-RKKHRCRVYNNGMPTGMYRWC-OH; disulfide 6-21; N-terminus assumed) | 1
CSCC[C@@H]1NC(=O)CNC(=O)[C@H]([C@@H](C)O)NC(=O)[C@@H]2CCCN2C(=O)[C@H](CCSC)NC(=O)CNC(=O)[C@H](CC(N)=O)NC(=O)[C@H](CC(N)=O)NC(=O)[C@H](Cc2ccc(O)cc2)NC(=O)[C@H](C(C)C)NC(=O)[C@H](CCCNC(=N)N)NC(=O)[C@@H](NC(=O)[C@H](CCCNC(=N)N)NC(=O)[C@H](Cc2c[nH]cn2)NC(=O)[C@H](C)NC(=O)[C@H](CCCCN)NC(=O)[C@H](CCCNC(=N)N)NC(=O)[C@@H](N)CCCCN)CSSC[C@@H](C(=O)O)NC(=O)[C@H](Cc2c[nH]c3ccccc23)NC(=O)[C@H](CCCNC(=N)N)NC(=O)[C@H](Cc2ccc(O)cc2)NC1=O [K4A] (H-KRKAHRCRVYNNGMPTGMYRWC-OH; disulfide 7-22) | 1
CSCC[C@@H]1NC(=O)CNC(=O)[C@H]([C@@H](C)O)NC(=O)[C@@H]2CCCN2C(=O)[C@H](CCSC)NC(=O)CNC(=O)[C@H](CC(N)=O)NC(=O)[C@H](CC(N)=O)NC(=O)[C@H](Cc2ccc(O)cc2)NC(=O)[C@H](C(C)C)NC(=O)[C@H](CCCNC(=N)N)NC(=O)[C@@H](NC(=O)[C@H](CCCNC(=N)N)NC(=O)[C@H](Cc2c[nH]cn2)NC(=O)[C@H](CCCCN)NC(=O)[C@H](CCCCN)NC(=O)[C@H](CCCNC(=N)N)NC(=O)[C@H](C)N)CSSC[C@@H](C(=O)O)NC(=O)[C@H](Cc2c[nH]c3ccccc23)NC(=O)[C@H](CCCNC(=N)N)NC(=O)[C@H](Cc2ccc(O)cc2)NC1=O [K1A] (H-ARKKHRCRVYNNGMPTGMYRWC-OH; disulfide 7-22) | 1
CSCC[C@@H]1NC(=O)CNC(=O)[C@H]([C@@H](C)O)NC(=O)[C@@H]2CCCN2C(=O)[C@H](CCSC)NC(=O)CNC(=O)[C@H](CC(N)=O)NC(=O)[C@H](CC(N)=O)NC(=O)[C@H](Cc2ccc(O)cc2)NC(=O)[C@H](C(C)C)NC(=O)[C@H](CCCNC(=N)N)NC(=O)[C@@H](NC(=O)[C@H](CCCNC(=N)N)NC(=O)[C@H](Cc2c[nH]cn2)NC(=O)[C@H](CCCCN)NC(=O)[C@H](CCCCN)NC(=O)[C@H](CCCNC(=N)N)NC(=O)[C@@H](N)CCCCN)CSSC[C@@H](C(=O)O)NC(=O)[C@H](Cc2c[nH]c3ccccc23)NC(=O)[C@H](C)NC(=O)[C@H](Cc2ccc(O)cc2)NC1=O [R20A] (H-KRKKHRCRVYNNGMPTGMYAWC-OH; disulfide 7-22) | 1

Same assay, conditions: S. aureus DPC5246, agar well diffusion

Structure (SMILES) | activity compared with bactofencin A, in words
CSCC[C@@H]1NC(=O)CNC(=O)[C@H]([C@@H](C)O)NC(=O)[C@@H]2CCCN2C(=O)[C@H](CCSC)NC(=O)CNC(=O)[C@H](CC(N)=O)NC(=O)[C@H](CC(N)=O)NC(=O)[C@H](Cc2ccc(O)cc2)NC(=O)[C@H](C(C)C)NC(=O)[C@H](CCCNC(=N)N)NC(=O)[C@@H](NC(=O)[C@H](CCCNC(=N)N)NC(=O)[C@H](Cc2c[nH]cn2)NC(=O)[C@H](CCCCN)NC(=O)[C@H](CCCCN)NC(=O)[C@@H](N)CCCNC(=N)N)CSSC[C@@H](C(=O)O)NC(=O)[C@H](Cc2c[nH]c3ccccc23)NC(=O)[C@H](CCCNC(=N)N)NC(=O)[C@H](Cc2ccc(O)cc2)NC1=O [R2-C22] (H-RKKHRCRVYNNGMPTGMYRWC-OH; disulfide 6-21; N-terminus assumed) | no effect on activity
